Data from US7202228B2, “Hydrogelation agents” (Japan Science and Technology Agency, priority 2001, dated 2007).

Experiments:
[1] = Gelatinizing ability in aqueous solutions of varying pH (gel formation observed); assay type: physicochemical; design: key to formation of a gel, pH 168 / formation of a gel, pH 401 / formation of a gel, pH 755 / formation of a gel, pH 918 / formation of a gel, milliQ water: the formation of gel is indicated by “G”; partial formation of gel is indicated by “LG”; unchanged aqueous solution is indicated by “S”; the formation of a precipitate is indicated by “P”; insolubility is indicated by “I”; settings: for formation of a gel, pH 401: 10 mg compound in 0.5 ml buffer solution pH 401; for formation of a gel, pH 401 / formation of a gel, pH 755 / formation of a gel, pH 918 / formation of a gel, pH 168 / formation of a gel, milliQ water: 60° C. or more, ultrasound one hour, then room temperature; for formation of a gel, pH 755: 10 mg compound in 0.5 ml buffer solution pH 755; for formation of a gel, pH 918: 10 mg compound in 0.5 ml buffer solution pH 918; for formation of a gel, pH 168: 10 mg compound in 0.5 ml buffer solution; for formation of a gel, milliQ water: 10 mg compound in 0.5 ml milliQ water (distilled water); for solidification of milliQ water (distilled water) or water of pH 4–9: concentration of hydrogelatinizer 2wt %
Description: The gelatinizing ability was examined for aqueous solutions, of varying pH, of Compounds 1–7 synthesized in Manufacturing Examples 1–7. 10 mg of these compounds was placed in a sample bottle together with 0.5 ml of buffer solution adjusted to various pH, and while maintaining the temperature at 60° C. or more, the mixture was irradiated with ultrasound for one hour. After leaving the resulting aqueous solution at room temperature, the formation of a gel was observed.
In the table, the formation of gel is indicated by “G”, partial formation of gel is indicated by “LG”, unchanged aqueous solution is indicated by “S”, the formation of a precipitate is indicated by “P”, and insolubility is indicated by “I”.

[2] = Hydrogel formation in water (dissolve at 60° C. or more, leave at room temperature); assay type: physicochemical; settings: left at room temperature
Description: Next, the method of manufacturing a hydrogel will be described. The gelatinizer of the invention is dissolved in an aqueous solution. A weakly acidic (pH 4) or weakly alkaline (pH 10) aqueous solution is preferred from the viewpoint of solubility. If the pH of the aqueous solution is less than 4, all of the phosphoric acid part is protonated, and it is difficult to dissolve in water. If the pH is higher than 10, the phosphoric acid part dissociates, and remains dissociated so that the water is not solidified. After dissolving the compound in the aqueous solution with heating, it is gradually cooled to room temperature and allowed to stand. In the dissolution process, heat alone is sufficient if the compound can be completely dissolved. If necessary, the compound can be efficiently converted to a simple dispersion in an aqueous solvent by ultrasound. The heating time is of the order of 30 minutes to 2 hours, but to ensure that dissolution of the compound is complete, it is preferably one hour or more. When the aqueous solution in which the compound has been dissolved is gradually cooled in air, and left at room temperature, the aqueous solution solidifies within one day-several days, and forms a hydrogel. […] The fluidity of the resulting gel may be varied by adjusting the pH of the water and the concentration of the gelatinizer during manufacture. In general, the formation of the hydrogel may be observed with the naked eye, but if the microstructure of the gel is observed using an optical microscope or scanning electron microscope, it can be seen that extremely fine fibers of the order of nanometers are entangled together to form a lattice structure.

[3] = 100 mg in 0.5 ml of water, dissolved at 60° C. or more

With Cc1cn(C2CC(OP(=O)(O)OCCCCCCCCCCCCCCOP(=O)(O)OC3CC(n4cc(C)c(=O)[nH]c4=O)OC3CO)C(CO)O2)c(=O)[nH]c1=O (stereo not shown) [Compound 3, 1,14-(tetradecanedioxy)bis-(3′-phosphatidyl-2′-deoxythymidine)] the “formation of a gel, pH 401” value [1] was “S”, the “formation of a gel, pH 755” value [1] was “S” and the “formation of a gel, pH 918” value [1] was “S”. For the same molecule, the “formation of a gel, pH 168” value [1] was “I” and the “formation of a gel, milliQ water” value [1] was “S”.
For Cc1cn([C@H]2C[C@H](OP(=O)(O)OCCCCCCCCCCCCCOP(=O)(O)O[C@H]3C[C@H](n4cc(C)c(=O)[nH]c4=O)O[C@@H]3CO)[C@@H](CO)O2)c(=O)[nH]c1=O [Compound 2, 1,13-(tridecanedioxy)bis-(3′-phosphatidyl-2′-deoxythymidine)], the hydrogel formation [2, 3] was “a hydrogel was obtained”, the “formation of a gel, pH 401” value [1] was “S” and the “formation of a gel, pH 755” value [1] was “S”. The “formation of a gel, pH 918” value [1] was “S”, the “formation of a gel, pH 168” value [1] was “I” and the “formation of a gel, milliQ water” value [1] was “S”.
For Cc1cn([C@H]2C[C@H](OP(=O)(O)OCCCCCCCCCCCCOP(=O)(O)O[C@H]3C[C@H](n4cc(C)c(=O)[nH]c4=O)O[C@@H]3CO)[C@@H](CO)O2)c(=O)[nH]c1=O [Compound 1, 1,12-(dodecanedioxy)bis(3′-phosphatidyl-2′-deoxythymidine)], the hydrogel formation [2, 3] was “solidified after several days”, the “formation of a gel, pH 401” value [1] was “S” and the “formation of a gel, pH 755” value [1] was “S”. The “formation of a gel, pH 918” value [1] was “S”, the “formation of a gel, pH 168” value [1] was “I” and the “formation of a gel, milliQ water” value [1] was “S”.
In the case of Cc1cn([C@H]2C[C@H](OP(=O)(O)OCCCCCCCCCCCCCCCCOP(=O)(O)O[C@H]3C[C@H](n4cc(C)c(=O)[nH]c4=O)O[C@@H]3CO)[C@@H](CO)O2)c(=O)[nH]c1=O [Compound 5, 1,16-(hexadecanedioxy)-bis(3′-phosphatidyl-2′-deoxythymidine)], the “formation of a gel, pH 401” value [1] is reported as “S”, the “formation of a gel, pH 755” value [1] is reported as “S” and the “formation of a gel, pH 918” value [1] is reported as “S”. The “formation of a gel, pH 168” value [1] was “I” and the “formation of a gel, milliQ water” value [1] was “P”.
For Cc1cn([C@H]2C[C@H](OP(=O)(O)OCCCCCCCCCCCCCCCCCCCCOP(=O)(O)O[C@H]3C[C@H](n4cc(C)c(=O)[nH]c4=O)O[C@@H]3CO)[C@@H](CO)O2)c(=O)[nH]c1=O [Compound 7, 1,20-(icosanedioxy)bis-(3′-phosphatidyl-2′-deoxythymidine)], the hydrogel formation ([2]; 1 mg in 0.5 ml of water, 60° C. or more, ultrasound one hour) was “solidified after several days”, the “formation of a gel, pH 401” value [1] was “LG” and the “formation of a gel, pH 755” value [1] was “G”. The “formation of a gel, pH 918” value [1] was “G”, the “formation of a gel, pH 168” value [1] was “I” and the “formation of a gel, milliQ water” value [1] was “G”. For the same molecule, the “solidification of milliQ water (distilled water) or water of pH 4–9” value [1] was “efficiently solidified”.
For Cc1cn(C2CC(OP(=O)(O)OCCCCCCCCCCCCCCCOP(=O)(O)OC3CC(n4cc(C)c(=O)[nH]c4=O)OC3CO)C(CO)O2)c(=O)[nH]c1=O (stereo not shown) [Compound 4, 1,15-(pentadecanedioxy)-bis(3′-phosphatidyl-2′-deoxythymidine)], the “formation of a gel, pH 401” value [1] was “S”, the “formation of a gel, pH 755” value [1] was “S” and the “formation of a gel, pH 918” value [1] was “S”. The “formation of a gel, pH 168” value [1] was “I” and the “formation of a gel, milliQ water” value [1] was “P”.
In the case of Cc1cn([C@H]2C[C@H](OP(=O)(O)OCCCCCCCCCCCCCCCCCCOP(=O)(O)O[C@H]3C[C@H](n4cc(C)c(=O)[nH]c4=O)O[C@@H]3CO)[C@@H](CO)O2)c(=O)[nH]c1=O [Compound 6, 1,18-(octadecanedioxy)bis-(3′-phosphatidyl-2′-deoxythymidine)], the “formation of a gel, pH 401” value [1] is reported as “P”, the “formation of a gel, pH 755” value [1] is reported as “P” and the “formation of a gel, pH 918” value [1] is reported as “S”. The “formation of a gel, pH 168” value [1] was “I”, the “formation of a gel, milliQ water” value [1] was “G” and the “solidification of milliQ water (distilled water) or water of pH 4–9” value [1] was “efficiently solidified”.
